According to PubChem BioAssay AID248 (DTP/NCI, 2004):
Several values for one entry are separate records, joined by “and”; a condition that tells them apart may be missing. Equal values may be shown once. Inconclusive results and toxic doses are left out.

Tested on: L1210 leukemia ip in BDF1 mice, survival T/C
Assay: NCI In Vivo Anticancer Drug Screen. Data for tumor model L1210 Leukemia (intraperitoneal) in B6D2F1 (BDF1) mice
Conditions: endpoint: mean survival time, higher = longer survival
In short: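 Tumor was transplanted into mice, which were then dosed with test compound or vehicle alone. Survival was recorded for each group, and the treated figure was expressed relative to the control figure.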

[1] = dose: 100.0 mg/kg/injection, schedule: Q01DX001 (ip), vehicle: saline
[2] = dose: 200.0 mg/kg/injection, schedule: Q01DX001 (ip), vehicle: saline
[3] = dose: 100.0 mg/kg/injection, schedule: Q04DX003 (ip), vehicle: Klucel (hydroxypropylcellulose) (HPC)
[4] = dose: 200.0 mg/kg/injection, schedule: Q04DX003 (ip), vehicle: Klucel (hydroxypropylcellulose) (HPC)
[5] = dose: 400.0 mg/kg/injection, schedule: Q04DX003 (ip), vehicle: Klucel (hydroxypropylcellulose) (HPC)
[6] = dose: 100.0 mg/kg/injection, schedule: Q04DX003 (ip), vehicle: saline
[7] = dose: 200.0 mg/kg/injection, schedule: Q04DX003 (ip), vehicle: saline
[8] = dose: 50.0 mg/kg/injection, schedule: Q01DX001 (ip), vehicle: other
[9] = dose: 100.0 mg/kg/injection, schedule: Q01DX001 (ip), vehicle: other
[10] = dose: 100.0 mg/kg/injection, schedule: Q01DX001 (ip), vehicle: carboxymethylcellulose (CMC)
[11] = dose: 200.0 mg/kg/injection, schedule: Q01DX001 (ip), vehicle: carboxymethylcellulose (CMC)
[12] = dose: 400.0 mg/kg/injection, schedule: Q01DX001 (ip), vehicle: carboxymethylcellulose (CMC)
[13] = dose: 50.0 mg/kg/injection, schedule: Q01DX001 (ip), vehicle: saline
[14] = dose: 400.0 mg/kg/injection, schedule: Q01DX001 (ip), vehicle: saline
[15] = dose: 50.0 mg/kg/injection, schedule: Q01DX001 (ip), vehicle: carboxymethylcellulose (CMC)

With `CCCCC(=O)N/N=C/c1ccccc1Cl` the T/C [1] was 102 % of control and the T/C [2] was 104 % of control.
`CC[N+](CC)(CCOc1ccc(C(C)(C)CC(C)(C)C)cc1)Cc1ccccc1` was tested, and the T/C (dose: 1.25 mg/kg/injection, schedule: Q01DX009 (ip), vehicle: saline with Tween-80) was 86 % of control.
For `CC(C(=O)O)N1C(=O)c2ccccc2C1=O` (stereo unspecified), the T/C (dose: 100.0 mg/kg/injection, schedule: Q01DX009 (ip), vehicle: Klucel (hydroxypropylcellulose) (HPC)) was 93 % of control, the T/C [3] was 92 % of control and the T/C (dose: 200.0 mg/kg/injection, schedule: Q01DX009 (ip), vehicle: Klucel (hydroxypropylcellulose) (HPC)) was 95 % of control. The T/C [4] was 97 % of control, the T/C (dose: 400.0 mg/kg/injection, schedule: Q01DX009 (ip), vehicle: Klucel (hydroxypropylcellulose) (HPC)) was 90 % of control and the T/C [5] was 94 % of control.
In the case of `C/C=C\CC(C(C)=O)C(=O)OCC` (stereo unspecified), the T/C (dose: 75.0 mg/kg/injection, schedule: Q01DX009 (ip), vehicle: saline) is reported as 92 % of control, the T/C [6] is reported as 105 % of control and the T/C (dose: 150.0 mg/kg/injection, schedule: Q01DX009 (ip), vehicle: saline) is reported as 92 % of control. The T/C [7] was 91 % of control, the T/C (dose: 300.0 mg/kg/injection, schedule: Q01DX009 (ip), vehicle: saline) was 97 % of control and the T/C (dose: 400.0 mg/kg/injection, schedule: Q04DX003 (ip), vehicle: saline) was 104 % of control.
In the case of `CCCCCCCCCCCCNCc1ccc(O)cc1`, the T/C (dose: 25.0 mg/kg/injection, schedule: Q01DX001 (ip), vehicle: other) is reported as 95 % of control, the T/C (dose: 25.0 mg/kg/injection, schedule: Q01DX009 (ip), vehicle: saline with Tween-80) is reported as 96 % of control and the T/C (dose: 25.0 mg/kg/injection, schedule: Q04DX003 (ip), vehicle: saline with Tween-80) is reported as 98 % of control. For the same molecule, the T/C [8] was 93 % of control, the T/C (dose: 50.0 mg/kg/injection, schedule: Q01DX009 (ip), vehicle: saline with Tween-80) was 93 % of control and the T/C (dose: 50.0 mg/kg/injection, schedule: Q04DX003 (ip), vehicle: saline with Tween-80) was 101 % of control. For the same molecule, the T/C [9] was 93 % of control and 90 % of control, the T/C (dose: 100.0 mg/kg/injection, schedule: Q01DX009 (ip), vehicle: saline with Tween-80) was 88 % of control and the T/C (dose: 100.0 mg/kg/injection, schedule: Q04DX003 (ip), vehicle: saline with Tween-80) was 102 % of control.
In the case of `CCOc1ccc(Cl)cc1C1N(Cc2ccccc2OC)CCCN1Cc1ccccc1OC`, the T/C [10] is reported as 87 % of control, the T/C [11] is reported as 93 % of control and the T/C [12] is reported as 91 % of control.
With `O=C(CN1C(=O)c2ccccc2C1=O)NCC(=O)Nc1ccccc1` the T/C [13] was 93 % of control, the T/C [1] was 98 % of control and the T/C [2] was 104 % of control. For the same molecule, the T/C [14] was 93 % of control.
In the case of `NC(=S)NN=C1CCN(Cc2ccccc2)CC1`, the T/C [13] is reported as 95 % of control and the T/C [1] is reported as 101 % of control.
With `OC(c1cc(-c2cccc(Cl)c2)nc2ccccc12)C1CCCCN1` (stereo unspecified) the T/C [15] was 92 % of control, the T/C [10] was 90 % of control and the T/C [11] was 95 % of control.
In the case of `O=C(CCCC(=O)N/N=C/c1cccc(Br)c1)N/N=C\c1cccc(Br)c1`, the T/C [15] is reported as 90 % of control and the T/C [10] is reported as 88 % of control.
For `CC(C)OC(=O)C1(N)CCCC1`, the T/C (dose: 25.0 mg/kg/injection, schedule: Q01DX Z (ip), vehicle: carboxymethylcellulose (CMC)) was 105 % of control, the T/C (dose: 30.0 mg/kg/injection, schedule: Q01DX Z (ip), vehicle: saline) was 113 % of control and the T/C (dose: 40.0 mg/kg/injection, schedule: Q01DX Z (ip), vehicle: other) was 119 % of control. For the same molecule, the T/C (dose: 45.0 mg/kg/injection, schedule: Q01DX Z (ip), vehicle: saline) was 118 % of control, the T/C (dose: 50.0 mg/kg/injection, schedule: Q01DX Z (ip), vehicle: carboxymethylcellulose (CMC)) was 122 % of control and the T/C (dose: 150.0 mg/kg/injection, schedule: Q01DX Z (ip), vehicle: saline) was 89 % of control. The T/C (dose: 200.0 mg/kg/injection, schedule: Q01DX Z (ip), vehicle: carboxymethylcellulose (CMC)) was 88 % of control.
For `CCC(CC)(COC(C)=O)C[N+](C)(C)C`, the T/C [1] was 103 % of control, the T/C [6] was 94 % of control and the T/C [2] was 95 % of control. For the same molecule, the T/C [7] was 102 % of control.
`Cc1cc(C)c(-c2c(C)cc(C)c(N)c2C)c(C)c1N` was tested, and the T/C (dose: 12.5 mg/kg/injection, schedule: Q01DX009 (ip), vehicle: Klucel (hydroxypropylcellulose) (HPC)) was 90 % of control, the T/C (dose: 25.0 mg/kg/injection, schedule: Q01DX009 (ip), vehicle: Klucel (hydroxypropylcellulose) (HPC)) was 93 % of control and the T/C (dose: 50.0 mg/kg/injection, schedule: Q01DX009 (ip), vehicle: Klucel (hydroxypropylcellulose) (HPC)) was 103 % of control. The T/C [3] was 109 % of control, the T/C [4] was 95 % of control and the T/C [5] was 97 % of control.
In the case of `O=C(NCc1ccco1)Nc1ccc(Cl)cc1`, the T/C (dose: 100.0 mg/kg/injection, schedule: Q01DX001 (ip), vehicle: saline with Tween-80) is reported as 101 % of control, the T/C (dose: 200.0 mg/kg/injection, schedule: Q01DX001 (ip), vehicle: saline with Tween-80) is reported as 96 % of control and the T/C (dose: 400.0 mg/kg/injection, schedule: Q01DX001 (ip), vehicle: saline with Tween-80) is reported as 108 % of control.
`CC1C(=O)OC2C1CCC1(C)C=CC(=O)C(C)C21` (stereo unspecified) was tested, and the T/C (dose: 75.0 mg/kg/injection, schedule: Q01DX001 (ip), vehicle: saline) was 102 % of control and the T/C (dose: 150.0 mg/kg/injection, schedule: Q01DX001 (ip), vehicle: saline) was 103 % of control.
`CCCNP(=S)(NCCC)NCCC` was tested, and the T/C [8] was 96 % of control, the T/C [9] was 100 % of control and the T/C (dose: 200.0 mg/kg/injection, schedule: Q01DX001 (ip), vehicle: other) was 105 % of control. The T/C (dose: 400.0 mg/kg/injection, schedule: Q01DX001 (ip), vehicle: other) was 100 % of control.
For `COC(=O)c1ccc(/C=C/c2ccc(S(=O)(=O)F)cc2)cc1`, the T/C (dose: 100.0 mg/kg/injection, schedule: Q01DX001 (ip), vehicle: Klucel (hydroxypropylcellulose) (HPC)) was 91 % of control, the T/C (dose: 200.0 mg/kg/injection, schedule: Q01DX001 (ip), vehicle: Klucel (hydroxypropylcellulose) (HPC)) was 91 % of control and the T/C (dose: 400.0 mg/kg/injection, schedule: Q01DX001 (ip), vehicle: Klucel (hydroxypropylcellulose) (HPC)) was 97 % of control.
`CCCCS(=O)(=O)CCCCCCl` was tested, and the T/C [1] was 105 % of control, the T/C [2] was 104 % of control and the T/C [14] was 104 % of control.
`Nc1c(-c2ncc[nH]2)ncn1C1OC(CO)C(O)C1O` (stereo unspecified) was tested, and the T/C (dose: 100.0 mg/kg/injection, schedule: Q01DX005 (ip), vehicle: saline) was 94 % of control and the T/C (dose: 200.0 mg/kg/injection, schedule: Q01DX005 (ip), vehicle: saline) was 93 % of control.
With `CNC(=O)c1ccc(NC(=O)Nc2ccc(C3=NCCN3)cc2)cc1NC(=O)Nc1ccc(C2=NCCN2)cc1` the T/C (dose: 2.0 mg/kg/injection, schedule: Q01DX Z (ip), vehicle: carboxymethylcellulose (CMC)) was 96 % of control, the T/C (dose: 4.0 mg/kg/injection, schedule: Q01DX Z (ip), vehicle: carboxymethylcellulose (CMC)) was 112 % of control and the T/C (dose: 17.0 mg/kg/injection, schedule: Q01DX Z (ip), vehicle: carboxymethylcellulose (CMC)) was 209 % of control and 351 % of control. The T/C (dose: 27.0 mg/kg/injection, schedule: Q01DX Z (ip), vehicle: carboxymethylcellulose (CMC)) was 287 % of control, the T/C (dose: 34.0 mg/kg/injection, schedule: Q01DX Z (ip), vehicle: carboxymethylcellulose (CMC)) was 239 % of control and 295 % of control and the T/C (dose: 51.0 mg/kg/injection, schedule: Q01DX Z (ip), vehicle: carboxymethylcellulose (CMC)) was 209 % of control. For the same molecule, the T/C (dose: 62.0 mg/kg/injection, schedule: Q01DX Z (oral), vehicle: carboxymethylcellulose (CMC)) was 104 % of control, the T/C (dose: 68.0 mg/kg/injection, schedule: Q01DX Z (ip), vehicle: carboxymethylcellulose (CMC)) was 152 % of control and the T/C (dose: 125.0 mg/kg/injection, schedule: Q01DX Z (oral), vehicle: carboxymethylcellulose (CMC)) was 105 % of control. The T/C (dose: 250.0 mg/kg/injection, schedule: Q01DX Z (oral), vehicle: carboxymethylcellulose (CMC)) was 102 % of control and the T/C (dose: 500.0 mg/kg/injection, schedule: Q01DX Z (oral), vehicle: carboxymethylcellulose (CMC)) was 102 % of control.
For `C=C(C)C(O)CC(C)C` (stereo unspecified), the T/C [10] was 100 % of control, the T/C [11] was 100 % of control and the T/C [12] was 94 % of control.
